Reference: patent US20220249441A1, “Homodimeric Tobramycin Adjuvant Repurposes Novobiocin as an Effective Antibacterial Agent Against Gram-Negative Bacteria” (priority 2019, published 2022)

Experiments:
P. aeruginosa = experiment: Checkerboard assay (antibiotic + adjuvant combination MIC); format: cell-based, Pseudomonas aeruginosa; details: compound at 8 μM; for MIC of Aztreonam + compound / MIC of Ceftazidime + compound / MIC of Imipenem + compound / MIC of Piperacillin + compound: P. aeruginosa PAO1
Experimental: (§1) Antimicrobial Susceptibility Assay. The in vitro antimicrobial activity of all compounds/antibiotics against a panel of bacteria was evaluated by microbroth dilution method in accordance with the Clinical and Laboratory Standards Institute (CLSI) guidelines (using ATCC strains as quality control strains) (54). Overnight grown bacterial cultures were diluted in saline to achieve a 0.5 McFarland turbidity, followed by 1:50 dilution in Mueller-Hinton broth (MHB) for inoculation to a final concentration of approximately 5×10^5 CFU/mL. […] The lowest concentration that prevented the visible growth of bacteria was defined as the MIC for each antimicrobial agent. The broth with or without bacterial cells was used as positive or negative control, respectively.
Checkerboard Assay. Combination studies with different antibiotics were performed in 96-well plates as previously described (19). Briefly, the antibiotic of interest was serially diluted in MHB along the abscissa while the adjuvant (tobramycin homodimer) was serially diluted in MHB along the ordinate. This creates a 10×7 matrices wherein each well consists of a combination of different antibiotic and adjuvant concentrations. Overnight grown bacterial cultures were diluted in saline to achieve a 0.5 McFarland turbidity, followed by 1:50 dilution in Mueller-Hinton broth (MHB) for inoculation to a final concentration of approximately 5×10^5 CFU/mL. […] MIC was recorded as wells with the lowest concentration of drugs with no bacterial growth. The fractional inhibitory concentration (FIC) for each antibiotic was calculated by dividing the MIC of the antibiotic in the presence of adjuvant by the MIC of the antibiotic alone. Similarly, the FIC of adjuvant was calculated by dividing the MIC of the adjuvant in the presence of antibiotic by the MIC of the adjuvant alone. FIC index is the sum of both FICs. FIC indices of ≤0.5 were deemed synergistic; >0.5-4, no interaction; and >4, antagonistic.

[1] = test system: P. aeruginosa PAO1 and efflux deficient mutants, MDR/XDR isolates; experiment: microbe, parasite or virus in culture; format: cell-based, Pseudomonas aeruginosa
Experimental: Antimicrobial Susceptibility Assay. The in vitro antimicrobial activity of all compounds/antibiotics against a panel of bacteria was evaluated by microbroth dilution method in accordance with the Clinical and Laboratory Standards Institute (CLSI) guidelines (using ATCC strains as quality control strains) (54). […] The broth with or without bacterial cells was used as positive or negative control, respectively.

[2] = test system: panel of Gram-positive and Gram-negative bacteria; experiment: Antimicrobial susceptibility assay against a panel of bacteria; format: cell-based; details: some isolates
Experimental: as §1

[3] = PAO200 (first column so headed)
[4] = PAO200 (second column so headed)

## Cl.Cl.Cl.Cl.Cl.Cl.NC[C@H]1O[C@H](O[C@H]2[C@H](OCCCCCCCCCCCCN3CCN(c4cc5c(cc4F)c(=O)c(C(=O)O)cn5C4CC4)CC3)[C@@H](O[C@H]3O[C@H](CO)[C@@H](O)[C@H](N)[C@H]3O)[C@H](N)C[C@@H]2N)[C@H](N)C[C@@H]1O [Compound 21, Tobramycin-ciprofloxacin]
P. aeruginosa
  MIC of Aztreonam + compound: 0.25 µg/mL
  MIC of Ceftazidime + compound: 0.25 µg/mL
  MIC of Imipenem + compound: 0.5 µg/mL
  MIC of Piperacillin + compound: 2 µg/mL
  resistant isolates in which CLSI breakpoint was attained for aztreonam: twelve out of thirteen
  resistant isolates in which CLSI breakpoint was attained for ceftazidime: four out of eleven
  resistant isolates in which CLSI breakpoint was attained for imipenem: ten out of seventeen
P. aeruginosa; PA 259-96918
  MIC of ATM in the presence of compound: 8 µg/mL
  MIC of CAZ in the presence of compound: 64 µg/mL
  MIC of IPM in the presence of compound: 16 µg/mL
P. aeruginosa; PA 260-97103
  MIC of ATM in the presence of compound: 4 µg/mL
  MIC of CAZ in the presence of compound: 4 µg/mL
  MIC of IPM in the presence of compound: 2 µg/mL
P. aeruginosa; PA 262-101856
  MIC of ATM in the presence of compound: 4 µg/mL
  MIC of CAZ in the presence of compound: 4 µg/mL
  MIC of IPM in the presence of compound: 4 µg/mL
P. aeruginosa; PA 264-104354
  MIC of ATM in the presence of compound: 8 µg/mL
  MIC of CAZ in the presence of compound: 16 µg/mL
  MIC of IPM in the presence of compound: 4 µg/mL
P. aeruginosa; PA 86052
  MIC of ATM in the presence of compound: 8 µg/mL
  MIC of CAZ in the presence of compound: 32 µg/mL
  MIC of IPM in the presence of compound: 8 µg/mL
P. aeruginosa; PA 88949
  MIC of ATM in the presence of compound: 8 µg/mL
  MIC of CAZ in the presence of compound: 32 µg/mL
  MIC of IPM in the presence of compound: 8 µg/mL
P. aeruginosa; PA 91433
  MIC of ATM in the presence of compound: 4 µg/mL
  MIC of CAZ in the presence of compound: 2 µg/mL
  MIC of IPM in the presence of compound: 2 µg/mL
P. aeruginosa; PA 100036
  MIC of ATM in the presence of compound: 4 µg/mL
  MIC of CAZ in the presence of compound: 2 µg/mL
  MIC of IPM in the presence of compound: 2 µg/mL
P. aeruginosa; PA 101243
  MIC of ATM in the presence of compound: 4 µg/mL
  MIC of CAZ in the presence of compound: 8 µg/mL
  MIC of IPM in the presence of compound: 2 µg/mL
P. aeruginosa; PA 101885
  MIC of ATM in the presence of compound: 1 µg/mL
  MIC of CAZ in the presence of compound: 1 µg/mL
  MIC of IPM in the presence of compound: 2 µg/mL
P. aeruginosa; PA 107092
  MIC of ATM in the presence of compound: 8 µg/mL
  MIC of CAZ in the presence of compound: 16 µg/mL
  MIC of IPM in the presence of compound: 8 µg/mL
P. aeruginosa; PA 108590
  MIC of ATM in the presence of compound: 0.5 µg/mL
  MIC of CAZ in the presence of compound: 0.5 µg/mL
  MIC of IPM in the presence of compound: 0.25 µg/mL
P. aeruginosa; PA 109084
  MIC of ATM in the presence of compound: 16 µg/mL
  MIC of CAZ in the presence of compound: 16 µg/mL
  MIC of IPM in the presence of compound: 8 µg/mL
P. aeruginosa; PA 114228
  MIC of ATM in the presence of compound: 2 µg/mL
  MIC of CAZ in the presence of compound: 0.5 µg/mL
  MIC of IPM in the presence of compound: 2 µg/mL
P. aeruginosa; PA O200 (efflux-deficient)
  MIC of ATM in the presence of compound: 0.03 µg/mL
  MIC of CAZ in the presence of compound: 0.06 µg/mL
  MIC of IPM in the presence of compound: 1 µg/mL
P. aeruginosa; PA O750 (efflux-deficient)
  MIC of ATM in the presence of compound: 0.06 µg/mL
  MIC of CAZ in the presence of compound: 0.03 µg/mL
  MIC of IPM in the presence of compound: 0.5 µg/mL
P. aeruginosa; PAO1
  MIC of ATM in the presence of compound: 0.25 µg/mL
  MIC of CAZ in the presence of compound: 0.25 µg/mL
  MIC of IPM in the presence of compound: 0.5 µg/mL
[1]; PA0750 (efflux-deficient)
  MIC: 2 µg/mL
[1]; PAO1 (wild-type)
  MIC: 32 µg/mL
[1]; [3]
  MIC: 4 µg/mL
[1]; [4]
  MIC: 2 µg/mL
[2]
  intrinsic antimicrobial activity: some modest residual activity

## Cl.Cl.Cl.Cl.Cl.NC[C@H]1O[C@H](O[C@H]2[C@H](OCCCCCCCCCCCCN3CCN(c4cc5c(cc4F)c(=O)c(C(=O)O)cn5C4CC4)CC3)[C@@H](O)[C@H](N)C[C@@H]2N)[C@H](N)C[C@@H]1O [Compound 24]
P. aeruginosa
  MIC of Aztreonam + compound: 0.5 µg/mL
  MIC of Ceftazidime + compound: 0.25 µg/mL
  MIC of Imipenem + compound: 1 µg/mL
  MIC of Piperacillin + compound: 2 µg/mL
P. aeruginosa; PA 259-96918
  MIC of ATM in the presence of compound: 8 µg/mL
  MIC of CAZ in the presence of compound: 128 µg/mL
  MIC of IPM in the presence of compound: 16 µg/mL
P. aeruginosa; PA 260-97103
  MIC of ATM in the presence of compound: 0.25 µg/mL
  MIC of CAZ in the presence of compound: 0.25 µg/mL
  MIC of IPM in the presence of compound: 2 µg/mL
P. aeruginosa; PA 262-101856
  MIC of ATM in the presence of compound: 16 µg/mL
  MIC of CAZ in the presence of compound: 4 µg/mL
  MIC of IPM in the presence of compound: 8 µg/mL
P. aeruginosa; PA 264-104354
  MIC of ATM in the presence of compound: 16 µg/mL
  MIC of CAZ in the presence of compound: 64 µg/mL
  MIC of IPM in the presence of compound: 8 µg/mL
P. aeruginosa; PA 86052
  MIC of ATM in the presence of compound: 4 µg/mL
  MIC of CAZ in the presence of compound: 4 µg/mL
  MIC of IPM in the presence of compound: 4 µg/mL
P. aeruginosa; PA 88949
  MIC of ATM in the presence of compound: 8 µg/mL
  MIC of CAZ in the presence of compound: 32 µg/mL
  MIC of IPM in the presence of compound: 64 µg/mL
P. aeruginosa; PA 91433
  MIC of ATM in the presence of compound: 8 µg/mL
  MIC of CAZ in the presence of compound: 0.5 µg/mL
  MIC of IPM in the presence of compound: 8 µg/mL
P. aeruginosa; PA 100036
  MIC of ATM in the presence of compound: 8 µg/mL
  MIC of CAZ in the presence of compound: 4 µg/mL
  MIC of IPM in the presence of compound: 4 µg/mL
P. aeruginosa; PA 101243
  MIC of ATM in the presence of compound: 0.25 µg/mL
  MIC of CAZ in the presence of compound: 4 µg/mL
  MIC of IPM in the presence of compound: 4 µg/mL
P. aeruginosa; PA 101885
  MIC of ATM in the presence of compound: 4 µg/mL
  MIC of CAZ in the presence of compound: 4 µg/mL
  MIC of IPM in the presence of compound: 2 µg/mL
P. aeruginosa; PA 107092
  MIC of ATM in the presence of compound: 32 µg/mL
  MIC of CAZ in the presence of compound: 64 µg/mL
  MIC of IPM in the presence of compound: 16 µg/mL
P. aeruginosa; PA 108590
  MIC of ATM in the presence of compound: 0.13 µg/mL
  MIC of CAZ in the presence of compound: 1 µg/mL
  MIC of IPM in the presence of compound: 0.5 µg/mL
P. aeruginosa; PA 109084
  MIC of ATM in the presence of compound: 32 µg/mL
  MIC of CAZ in the presence of compound: 32 µg/mL
  MIC of IPM in the presence of compound: 8 µg/mL
P. aeruginosa; PA 114228
  MIC of ATM in the presence of compound: 8 µg/mL
  MIC of CAZ in the presence of compound: 4 µg/mL
  MIC of IPM in the presence of compound: 1 µg/mL
P. aeruginosa; PA O200 (efflux-deficient)
  MIC of ATM in the presence of compound: 0.03 µg/mL
  MIC of CAZ in the presence of compound: 0.13 µg/mL
  MIC of IPM in the presence of compound: 1 µg/mL
P. aeruginosa; PA O750 (efflux-deficient)
  MIC of ATM in the presence of compound: 0.13 µg/mL
  MIC of CAZ in the presence of compound: 0.01 µg/mL
  MIC of IPM in the presence of compound: 2 µg/mL
P. aeruginosa; PAO1
  MIC of ATM in the presence of compound: 0.5 µg/mL
  MIC of CAZ in the presence of compound: 0.25 µg/mL
  MIC of IPM in the presence of compound: 1 µg/mL
[1]; PA0750 (efflux-deficient)
  MIC: 2 µg/mL
[1]; PAO1 (wild-type)
  MIC: 32 µg/mL
[1]; [3]
  MIC: 4 µg/mL
[1]; [4]
  MIC: 2 µg/mL
[2]
  intrinsic antimicrobial activity: some modest residual activity
